Legend:
[1] = molecular target: T1, Ras farnesyl transferase (Homo sapiens, UniProt P49354+P49356); test: Ras farnesyl transferase inhibiting activity (filter-binding, tritium-farnesylpyrophosphate, Ras-CVLS substrate); type: biochemical; conditions: recombinant Ras farnesyl transferase, 30 minutes at 37° C., read-out: Ftase IC50
T1 construct: made in house

[2] = system: intracellular Ras farnesyl transferase, Rat2 cell line; test: Intracellular Ras farnesyl transferase inhibiting activity in transformed Rat2 cells (35S-methionine labelling, Y13-259 immunoprecipitation, SDS-PAGE); type: cell-based; conditions: Rattus norvegicus; transformed Rat2 fibroblast cell line; concentration inhibiting 50% of farnesyl binding of Ras protein; read-out: Ftase CIC50
In short: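 Rat2 fibroblasts transformed with H-Ras, or with H-Ras carrying the K-Ras polybasic lysine C-terminus, were treated with compound (1% DMSO). After 4 h they were labelled for 20 h with 150 μCi/ml 35S-methionine. Lysates were immunoprecipitated with Y13-259, run on 13.5% SDS-PAGE and autoradiographed; CIC50 is the concentration halving farnesylated versus unfarnesylated Ras band intensity.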

[3] = molecular target: T2, Geranylgeranyl transferase (Bos taurus, UniProt P29702+Q5EAD5); test: Geranylgeranyl transferase inhibiting activity (geranylgeranyl pyrophosphate, Ras-CVIL substrate); type: biochemical; conditions: geranylgeranyl transferase purified from bovine brain, read-out: GGtase IC50
T2 construct: Geranylgeranyl transferase was purified from bovine brain; from tissue; host or cells: bovine brain
In short: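 Bovine-brain-purified enzyme run as in the farnesyl transferase assay, with geranylgeranyl pyrophosphate and Ras-CVIL substrate protein under similar reaction conditions.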

IC50 [1]	IC50 [3]	Structure (SMILES)	IC50 [2]
> 50 µM	> 10 µM	CC1(c2cccc3ccccc23)C(=O)N(CCCc2cnc[nH]2)C(=O)N1CC(=O)N1CCSC1 (stereo not drawn) [Compound 10, 3-[3-(3H-imidazol-4-yl)-propyl]-5-methyl-5-naphthalen-1-yl-1-(2-oxo-2-thiazolidin-3-yl-ethyl)-imidazolidin-2,4-dione]	< 20 µM
0.045 µM	> 10 µM	CC1(c2cccc3ccccc23)C(=O)N(CCCc2cncn2Cc2ccc(C#N)cc2)C(=O)N1Cc1ccco1 (stereo not drawn) [Compound 55, 4-{5-[3-(3-furan-2-ylmethyl-4-methyl-4-naphthalen-1-yl-2,5-dioxo-imidazolidin-1-yl)-propyl]-imidazol-1-ylmethyl}-benzonitrile]	< 20 µM
5.5 µM	> 10 µM	CSCCC1SCCN1C(=O)CN1C(=O)N(CCCc2cnc[nH]2)C(=O)C1(C)c1cccc2ccccc12 (stereo not drawn) [Compound 12, 3-[3-(3H-imidazol-4-yl)-propyl]-5-methyl-1-{2-[2-(2-methylsulfanyl-ethyl)-thiazolidin-3-yl]-2-oxo-ethyl}-5-naphthalen-1-yl-imidazolidin-2,4-dione]	< 20 µM
0.72 µM	> 10 µM	CC1(c2cccc3ccccc23)C(=O)N(CCCn2ccnc2)C(=O)N1Cc1cccc(Oc2ccccc2)c1 (stereo not drawn) [Compound 25, 3-(3-imidazol-1-yl-propyl)-5-methyl-5-naphthalen-1-yl-1-(3-phenoxy-benzyl)-imidazolidin-2,4-dione]	< 20 µM
1.1 µM	> 10 µM	CC1(c2cccc3ccccc23)C(=O)N(CCCn2ccnc2)C(=O)N1Cc1ccc(S(C)(=O)=O)cc1 (stereo not drawn) [Compound 28, 3-(3-imidazol-1-yl-propyl)-1-(4-methylsulfonyl-benzyl)-5-methyl-5-naphthalen-1-yl-imidazolidin-2,4-dione]	< 20 µM
1.7 µM	> 10 µM	CC1(c2cccc3ccccc23)C(=O)N(CCCn2ccnc2)C(=O)N1Cc1cccc(C(F)(F)F)c1 (stereo not drawn) [Compound 22, 1-(3-trifluoromethyl-benzyl)-3-(3-imidazol-1-yl-propyl)-5-methyl-5-naphthalen-1-yl-imidazolidin-2,4-dione]	< 20 µM
0.11 µM	> 10 µM	N#Cc1ccc(Cn2cncc2CN2C(=O)[C@H](CC(=O)N3CCOCC3)N(Cc3cccc4ccccc34)C2=O)cc1 [Compound 81, 4-{(5S)-[4-(2-morpholin-4-yl-2-oxo-ethyl)-3-naphthalen-1-ylmethyl-2,5-dioxo-imidazolidin-1-ylmethyl]-imidazol-1-ylmethyl}-benzonitrile]	< 20 µM
0.03 µM	> 10 µM	N#Cc1ccc(Cn2cncc2CN2C(=O)CN(Cc3cccc4ccccc34)C2=O)cc1 [Compound 75, 4-[5-(3-naphthalen-1-ylmethyl-2,5-dioxo-imidazolidin-1-ylmethyl)-imidazol-1-ylmethyl]-benzonitrile]	> 50 µM
5 µM	> 10 µM	O=C1CN(c2cccc3ccccc23)C(=O)N1CCCn1ccnc1 [Compound 87, 3-(3-imidazol-1-yl-propyl)-1-naphthalen-1-yl-imidazolidin-2,4-dione]	> 50 µM
5 µM	> 10 µM	CCOC(=O)CN1C(=O)N(CCCc2cncn2Cc2ccc(Br)cc2)C(=O)C1(C)c1cccc2ccccc12 (stereo not drawn) [Compound 70, (3-{3-[3-(4-bromo-benzyl)-3H-imidazol-4-yl]-propyl}-5-methyl-5-naphthalen-1-yl-2,4-dioxo-imidazolidin-1-yl)-acetic acid ethyl ester]	< 20 µM
2.5 µM	> 10 µM	CC1(c2cccc3ccccc23)C(=O)N(CCCn2ccnc2)C(=O)N1Cc1ccccc1 (stereo not drawn) [Compound 16, 1-benzyl-3-(3-imidazol-1-yl-propyl)-5-methyl-5-naphthalen-1-yl-imidazolidin-2,4-dione]	< 20 µM

Source: US6384061B1, “Hydantoin compounds and methods related thereto” (LG Chemical Ltd., priority 2000, dated 2002)
